Test results published in US20080070984A1, “Compositions and Methods of Treating Schizophrenia” (priority 2006, published 2008).

Assay: Uptake of colonically absorbable forms of levodopa after intracolonic administration in rats
Type: in vivo
Details: whole blood, other: intracolonic (directly into the colon via cannula), rat, intraperitoneal carbidopa
Protocol: Sustained release oral dosage forms, which release drug slowly over periods of about 6 to about 24 hours, generally release a significant proportion of the dose within the colon. Thus, drugs suitable for use in such dosage forms should be colonically absorbed.
Rats were obtained commercially and were pre-cannulated in the both the ascending colon and the jugular vein. Animals were conscious at the time of the experiment. […] Carbidopa was administered as a solution in water or citrate buffer either orally, intraperitoneally, or intracolonically at a dose equivalent to 25 mg of carbidopa per kg. […] Blood was then further quenched with methanol/perchloric acid to prevent hydrolysis of the levodopa prodrug. Blood samples were analyzed as described below.
Methanol/perchloric acid (300 μL) was added to blank 1.5 mL Eppendorf tubes. Rat blood (300 μL) was collected into EDTA tubes containing 75 μL of sodium metabisulfite at different times and vortexed to mix. A fixed volume of blood (100 μL) was immediately added into the Eppendorf tube and vortexed to mix. […] Methanol/perchloric acid (300 μL of 50/50) was then added into each tube followed by the addition of 20 μL of p-chlorophenylalanine. The samples were vortexed and centrifuged at 14,000 rpm for 10 min. The supernatant was analyzed by LC/MS/MS. […]

- bioavailability: 3%
Compound: N[C@@H](Cc1ccc(O)c(O)c1)C(=O)O [levodopa]
